According to patent US7598273B2, “Inhibitors of the gastric H+, K+-ATPase with enhanced therapeutic properties” (Auspex Pharmaceuticals, Inc, priority 2005, dated 2009):

Tested on: pylorus-ligated rats
Assay: Rat gastric activity, pylorus ligation (antisecretory activity)
Type: in vivo
Conditions: PO 30 mg/kg, 30 minutes before ligation, gastric contents collected 4 hours later, Wistar male rats
Protocol: Compounds of formula (1) according to the present invention were evaluated for possible antisecretory activity in pylorus-ligated rats. […] Wistar derived male rats weighing 210±10 g were fasted overnight. […] Animals were sacrificed 4 hours later and the gastric contents were collected. After centrifugation, the volume of each sample was measured and acidity was determined by titration.

| SMILES | % inhibition relative to vehicle controls: Acidity (μEq/mL) [%] | % inhibition relative to vehicle controls: Total Acid Output (μEq/4 hours) [%] | % inhibition relative to vehicle controls: Volume (mL/4 hours) [%] |
| --- | --- | --- | --- |
| [2H]c1nc(C([2H])([2H])[S+]([O-])c2nc3cc(OC([2H])([2H])[2H])ccc3[nH]2)c(C([2H])([2H])[2H])c(OC([2H])([2H])[2H])c1C([2H])([2H])[2H] (centres unmarked) [Example 10, d15-5-methoxy-2-(4-methoxy-3,5-dimethyl-pyridin-2-ylmethane-sulfinyl)-1H-benzimidazole] | 89 | 95 | 55 |

Tested on: not given
Assay: not given
Conditions: human, topical or ocular

| SMILES | degradation half-life increased as compared to non-isotopically enriched omeprazole | increase in the degradation half-life, as compared to the non-isotopically enriched drug [%] |
| --- | --- | --- |
| [2H]c1nc(C([2H])([2H])[S+]([O-])c2nc3cc(OC([2H])([2H])[2H])ccc3[nH]2)c(C([2H])([2H])[2H])c(OC([2H])([2H])[2H])c1C([2H])([2H])[2H] (centres unmarked) [Example 10, d15-5-methoxy-2-(4-methoxy-3,5-dimethyl-pyridin-2-ylmethane-sulfinyl)-1H-benzimidazole] | 20-60% | ≥ 10 |
| [2H]c1nc(C[S+]([O-])c2nc3cc(OC([2H])([2H])[2H])ccc3[nH]2)c(C([2H])([2H])[2H])c(OC([2H])([2H])[2H])c1C([2H])([2H])[2H] (centres unmarked) [Example 11, d13-5-methoxy-2-(4-methoxy-3,5-dimethylpyridin-2-ylmethane-sulfinyl)-1H-benzimidazole] | 20-60% | ≥ 10 |
| [2H]c1nc(C[S+]([O-])c2nc3cc(OC([2H])([2H])[2H])ccc3[nH]2)c(C([2H])([2H])[2H])c(OC)c1C([2H])([2H])[2H] (centres unmarked) [Example 13, d10-5-methoxy-2-(4-methoxy-3,5-dimethylpyridin-2-ylmethane-sulfinyl)-1H-benzimidazole] | – | ≥ 10 |
| [2H]c1nc(C([2H])([2H])[S+]([O-])c2nc3cc(OC([2H])([2H])[2H])ccc3[nH]2)c(C([2H])([2H])[2H])c(OC)c1C([2H])([2H])[2H] (centres unmarked) [Example 14, d12-5-methoxy-2-(4-methoxy-3,5-dimethylpyridin-2-ylmethane-sulfinyl)-1H-benzimidazole] | – | ≥ 10 |
| [2H]c1nc(C([2H])([2H])[S+]([O-])c2nc3cc(OC)ccc3[nH]2)c(C([2H])([2H])[2H])c(OC([2H])([2H])[2H])c1C([2H])([2H])[2H] (centres unmarked) [Example 18, d12-5-methoxy-2-(4-methoxy-3,5-dimethylpyridin-2-ylmethane-sulfinyl)-1H-benzimidazole] | – | ≥ 10 |
| [2H]c1nc(C[S+]([O-])c2nc3cc(OC)ccc3[nH]2)c(C([2H])([2H])[2H])c(OC)c1C([2H])([2H])[2H] (centres unmarked) [Example 19, d7-5-methoxy-2-(4-methoxy-3,5-dimethylpyridin-2-ylmethane-sulfinyl)-1H-benzimidazole] | – | ≥ 10 |
| [2H]c1nc(C[S+]([O-])c2nc3cc(OC)ccc3[nH]2)c(C([2H])([2H])[2H])c(OC([2H])([2H])[2H])c1C([2H])([2H])[2H] (centres unmarked) [Example 20, d10-5-methoxy-2-(4-methoxy-3,5-dimethylpyridin-2-ylmethane-sulfinyl)-1H-benzimidazole] | – | ≥ 10 |
| [2H]c1nc(C([2H])([2H])[S+]([O-])c2nc3cc(OC)ccc3[nH]2)c(C([2H])([2H])[2H])c(OC)c1C([2H])([2H])[2H] (centres unmarked) [Example 21, d9-5-methoxy-2-(4-methoxy-3,5-dimethylpyridin-2-ylmethane-sulfinyl)-1H-benzimidazole] | – | ≥ 10 |
| [2H]C([2H])([2H])Oc1ccc2[nH]c([S+]([O-])C([2H])([2H])c3ncc(C)c(OC([2H])([2H])[2H])c3C)nc2c1 (centres unmarked) [Example 25, d8-5-methoxy-2-(4-methoxy-3,5-dimethylpyridin-2-ylmethane-sulfinyl)-1H-benzimidazole] | – | ≥ 10 |
| [2H]C([2H])([2H])Oc1ccc2[nH]c([S+]([O-])Cc3ncc(C)c(OC)c3C)nc2c1 (centres unmarked) [Example 26, d3-5-methoxy-2-(4-methoxy-3,5-dimethylpyridin-2-ylmethane-sulfinyl)-1H-benzimidazole] | – | ≥ 10 |
| [2H]C([2H])([2H])Oc1ccc2[nH]c([S+]([O-])Cc3ncc(C)c(OC([2H])([2H])[2H])c3C)nc2c1 (centres unmarked) [Example 27, d6-5-methoxy-2-(4-methoxy-3,5-dimethylpyridin-2-ylmethane-sulfinyl)-1H-benzimidazole] | – | ≥ 10 |
| [2H]C([2H])([2H])Oc1ccc2[nH]c([S+]([O-])C([2H])([2H])c3ncc(C)c(OC)c3C)nc2c1 (centres unmarked) [Example 28, d5-5-methoxy-2-(4-methoxy-3,5-dimethylpyridin-2-ylmethane-sulfinyl)-1H-benzimidazole] | – | ≥ 10 |
| [2H]C([2H])([2H])Oc1c(C)cnc(C([2H])([2H])[S+]([O-])c2nc3cc(OC)ccc3[nH]2)c1C (centres unmarked) [Example 32, d5-5-methoxy-2-(4-methoxy-3,5-dimethylpyridin-2-ylmethane-sulfinyl)-1H-benzimidazole] | – | ≥ 10 |
| [2H]C([2H])([2H])Oc1c(C)cnc(C[S+]([O-])c2nc3cc(OC)ccc3[nH]2)c1C (centres unmarked) [Example 34, d3-5-methoxy-2-(4-methoxy-3,5-dimethylpyridin-2-ylmethane-sulfinyl)-1H-benzimidazole] | – | ≥ 10 |
| [2H]c1nc(C[S@+]([O-])c2nc3cc(OC([2H])([2H])[2H])ccc3[nH]2)c(C([2H])([2H])[2H])c(OC([2H])([2H])[2H])c1C([2H])([2H])[2H] [Example 39, d13-(S)-5-methoxy-2-(4-methoxy-3,5-dimethylpyridin-2-ylmethane-sulfinyl)-1H-benzimidazole] | 20-60% | ≥ 10 |

Tested on: not given
Assay: not given
Conditions: at steady state, CYP2C19 poor vs extensive metabolizers; cited from earlier work

| SMILES | ratio of AUC in Poor metabolizers to AUC in the rest of the population (extensive metabolizers) |
| --- | --- |
| COc1ccc2nc([S@@+]([O-])Cc3ncc(C)c(OC)c3C)[nH]c2c1 [esomeprazole, (S)-5-methoxy-2-(4-methoxy-3,5-dimethylpyridin-2-ylmethane-sulfinyl)-1H-benzimidazole] | approximately 2 |

Same assay, conditions: human plasma, relative to omeprazole; cited from earlier work

| SMILES | half-life in human plasma higher than that of omeprazole [%] |
| --- | --- |
| COc1ccc2nc([S@@+]([O-])Cc3ncc(C)c(OC)c3C)[nH]c2c1 [esomeprazole, (S)-5-methoxy-2-(4-methoxy-3,5-dimethylpyridin-2-ylmethane-sulfinyl)-1H-benzimidazole] | 20 |
